Common to all, as to test: biochemical
What all share (design): KINOMEscan active site-directed competition binding assay (DiscoveRx), 456 kinases, per cent of control at 300 nM
Conditions in all cases: read-out: Percent of Control (%)

For one test, the target named is AKT1 (Homo sapiens, UniProt P31749). In short, it runs like this: (§1)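 At 300 nmol/L, compounds were assessed for kinase binding in an active site-directed competition format covering 456 kinases.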
The target in another test is MAP4K5 (Homo sapiens, UniProt Q9Y4K4). The gist of the method:
as §1

The target in test [1] is T1, JAK1(JH1domain-catalytic) (Homo sapiens, UniProt P23458).
T1 construct: JH1domain-catalytic
T1 sequence (P23458 whole entry): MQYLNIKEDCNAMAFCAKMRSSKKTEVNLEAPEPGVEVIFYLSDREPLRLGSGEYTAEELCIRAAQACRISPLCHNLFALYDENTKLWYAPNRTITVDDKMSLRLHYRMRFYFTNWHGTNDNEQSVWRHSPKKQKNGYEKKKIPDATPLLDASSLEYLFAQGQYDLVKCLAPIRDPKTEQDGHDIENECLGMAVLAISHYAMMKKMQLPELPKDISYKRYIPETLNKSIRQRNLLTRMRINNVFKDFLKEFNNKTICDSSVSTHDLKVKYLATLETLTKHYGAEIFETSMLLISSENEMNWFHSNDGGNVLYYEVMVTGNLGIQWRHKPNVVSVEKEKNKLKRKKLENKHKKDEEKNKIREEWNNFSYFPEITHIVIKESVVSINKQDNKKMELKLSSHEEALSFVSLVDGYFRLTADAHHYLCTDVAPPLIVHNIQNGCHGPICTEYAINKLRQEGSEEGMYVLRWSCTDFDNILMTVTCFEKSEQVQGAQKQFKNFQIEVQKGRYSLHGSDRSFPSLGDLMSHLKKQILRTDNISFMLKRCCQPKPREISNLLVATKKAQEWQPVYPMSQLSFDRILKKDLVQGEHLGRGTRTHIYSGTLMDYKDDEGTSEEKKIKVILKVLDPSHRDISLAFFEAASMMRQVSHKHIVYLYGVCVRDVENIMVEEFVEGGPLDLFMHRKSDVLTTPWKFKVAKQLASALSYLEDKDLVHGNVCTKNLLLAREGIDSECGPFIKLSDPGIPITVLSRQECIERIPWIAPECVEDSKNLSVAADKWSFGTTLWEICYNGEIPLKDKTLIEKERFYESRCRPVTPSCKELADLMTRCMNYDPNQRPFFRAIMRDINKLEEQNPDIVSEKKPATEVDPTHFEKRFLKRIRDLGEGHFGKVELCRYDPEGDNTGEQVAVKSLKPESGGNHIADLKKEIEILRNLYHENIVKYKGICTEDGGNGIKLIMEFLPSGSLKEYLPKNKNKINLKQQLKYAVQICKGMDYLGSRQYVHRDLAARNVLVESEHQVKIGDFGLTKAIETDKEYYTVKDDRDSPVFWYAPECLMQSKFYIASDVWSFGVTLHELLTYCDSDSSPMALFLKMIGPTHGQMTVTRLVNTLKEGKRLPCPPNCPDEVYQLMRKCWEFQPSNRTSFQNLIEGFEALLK
In short, it runs like this: as §1

Another test has as its target T2, VEGFR2 (Homo sapiens, UniProt P35968).
T2 construct: gene KDR
The gist of the method: as §1

A further test has as its target T3, CDC2L5 (Homo sapiens, UniProt Q14004).
T3 construct: gene CDK13
In short, it runs like this: as §1

A further test concerns the target PHKG1 (Homo sapiens, UniProt Q16816). The gist of the method: as §1
The target in the next test is FLT3(ITD) (Homo sapiens, UniProt P36888, ITD). In short, it runs like this: as §1
In another test the target is FGFR1 (Homo sapiens, UniProt P11362). In short, it runs like this:
as §1

Test [2] concerns the target T4, RSK4(Kin.Dom.1-N-terminal) (Homo sapiens, UniProt Q9UK32).
T4 construct: gene RPS6KA6; Kin.Dom.1-N-terminal
In short, it runs like this: as §1

The target of test [3] is T5, RSK1(Kin.Dom.1-N-terminal) (Homo sapiens, UniProt Q15418).
T5 construct: gene RPS6KA1; Kin.Dom.1-N-terminal
In short, it runs like this:
as §1

The target of test [4] is T6, ABL1(M351T)-phosphorylated (Homo sapiens, UniProt P00519, M351T).
T6 construct: phosphorylated
The gist of the method: as §1

The target of a further test is EPHA8 (Homo sapiens, UniProt P29322). In short, it runs like this:
as §1

For a further test, the target named is SLK (Homo sapiens, UniProt Q9H2G2). The gist of the method:
as §1

A further test concerns the target T7, MLCK (Homo sapiens, UniProt Q32MK0).
T7 construct: gene MYLK3
The gist of the method: as §1

The next test addresses TNK2 (Homo sapiens, UniProt Q07912). The gist of the method:
as §1

In another test the target is SBK1 (Homo sapiens, UniProt Q52WX2). In short, it runs like this:
as §1

Another test has as its target EPHB4 (Homo sapiens, UniProt P54760). In short, it runs like this: as §1
The next test concerns the target CAMK2G (Homo sapiens, UniProt Q13555). In short, it runs like this:
as §1

For a further test, the target named is T8, DRAK1 (Homo sapiens, UniProt Q9UEE5).
T8 construct: gene STK17A
In short, it runs like this:
as §1

Another test has as its target RIOK3 (Homo sapiens, UniProt O14730). The gist of the method:
as §1

In the next test the target is T9, PCTK2 (Homo sapiens, UniProt Q00537).
T9 construct: gene CDK17
In short, it runs like this:
as §1

Where two headings read alike, the source gives them in different places.

Two molecules from paper PMC5862592, “CDK8/19 inhibition induces premature G1/S transition and ATR-dependent cell death in prostate cancer cells” (Oncotarget, 2018) can be followed below.

EPHA8, sequence (P29322 whole entry): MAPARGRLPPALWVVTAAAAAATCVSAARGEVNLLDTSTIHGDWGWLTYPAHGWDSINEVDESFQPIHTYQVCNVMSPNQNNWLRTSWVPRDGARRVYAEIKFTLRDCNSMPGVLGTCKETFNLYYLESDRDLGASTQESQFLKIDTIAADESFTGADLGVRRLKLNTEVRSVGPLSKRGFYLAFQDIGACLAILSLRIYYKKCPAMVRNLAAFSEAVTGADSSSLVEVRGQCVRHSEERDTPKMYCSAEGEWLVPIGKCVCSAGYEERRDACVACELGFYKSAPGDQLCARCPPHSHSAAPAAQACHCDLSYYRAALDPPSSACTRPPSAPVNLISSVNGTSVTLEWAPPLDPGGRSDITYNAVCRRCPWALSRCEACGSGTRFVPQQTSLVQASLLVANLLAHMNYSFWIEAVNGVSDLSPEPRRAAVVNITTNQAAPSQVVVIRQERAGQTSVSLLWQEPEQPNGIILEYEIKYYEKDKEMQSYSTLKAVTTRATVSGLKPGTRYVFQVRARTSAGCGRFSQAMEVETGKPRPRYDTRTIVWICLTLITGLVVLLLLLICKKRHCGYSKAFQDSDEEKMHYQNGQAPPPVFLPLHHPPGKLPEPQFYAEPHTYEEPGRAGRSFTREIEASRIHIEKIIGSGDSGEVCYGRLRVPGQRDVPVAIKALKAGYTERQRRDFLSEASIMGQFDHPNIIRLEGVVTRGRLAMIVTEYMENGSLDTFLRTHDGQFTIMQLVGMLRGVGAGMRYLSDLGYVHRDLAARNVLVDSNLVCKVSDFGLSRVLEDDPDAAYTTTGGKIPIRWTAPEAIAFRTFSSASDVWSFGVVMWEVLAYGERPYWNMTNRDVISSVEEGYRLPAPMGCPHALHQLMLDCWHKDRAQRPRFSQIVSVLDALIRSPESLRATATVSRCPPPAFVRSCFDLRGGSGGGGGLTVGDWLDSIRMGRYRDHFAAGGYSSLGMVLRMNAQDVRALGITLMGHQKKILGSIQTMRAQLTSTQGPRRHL
EPHB4, sequence (P54760 whole entry): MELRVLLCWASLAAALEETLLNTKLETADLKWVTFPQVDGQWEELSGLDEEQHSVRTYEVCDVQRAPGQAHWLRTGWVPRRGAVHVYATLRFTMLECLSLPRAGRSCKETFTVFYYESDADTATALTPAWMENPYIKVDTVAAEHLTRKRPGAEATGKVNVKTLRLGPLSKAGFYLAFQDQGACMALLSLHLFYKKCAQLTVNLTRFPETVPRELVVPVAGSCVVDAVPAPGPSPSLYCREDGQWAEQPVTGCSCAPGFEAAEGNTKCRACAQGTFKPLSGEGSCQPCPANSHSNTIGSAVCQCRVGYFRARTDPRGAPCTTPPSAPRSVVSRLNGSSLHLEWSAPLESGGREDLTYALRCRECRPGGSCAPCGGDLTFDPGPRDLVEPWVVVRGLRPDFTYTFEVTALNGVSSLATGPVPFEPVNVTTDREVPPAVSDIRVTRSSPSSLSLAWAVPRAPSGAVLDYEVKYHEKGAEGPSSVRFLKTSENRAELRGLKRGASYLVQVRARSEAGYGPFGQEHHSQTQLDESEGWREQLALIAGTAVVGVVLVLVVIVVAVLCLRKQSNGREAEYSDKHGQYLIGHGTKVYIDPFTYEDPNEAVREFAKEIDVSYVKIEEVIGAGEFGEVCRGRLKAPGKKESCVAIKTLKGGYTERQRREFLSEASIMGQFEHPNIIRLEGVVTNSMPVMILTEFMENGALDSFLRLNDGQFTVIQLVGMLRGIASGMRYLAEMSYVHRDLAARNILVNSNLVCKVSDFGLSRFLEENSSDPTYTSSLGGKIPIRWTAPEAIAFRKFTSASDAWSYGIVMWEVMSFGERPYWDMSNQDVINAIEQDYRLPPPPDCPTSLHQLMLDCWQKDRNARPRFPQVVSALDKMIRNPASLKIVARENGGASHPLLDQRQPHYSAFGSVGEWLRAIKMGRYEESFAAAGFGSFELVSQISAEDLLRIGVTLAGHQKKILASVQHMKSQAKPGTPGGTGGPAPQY
RIOK3, sequence (O14730 whole entry): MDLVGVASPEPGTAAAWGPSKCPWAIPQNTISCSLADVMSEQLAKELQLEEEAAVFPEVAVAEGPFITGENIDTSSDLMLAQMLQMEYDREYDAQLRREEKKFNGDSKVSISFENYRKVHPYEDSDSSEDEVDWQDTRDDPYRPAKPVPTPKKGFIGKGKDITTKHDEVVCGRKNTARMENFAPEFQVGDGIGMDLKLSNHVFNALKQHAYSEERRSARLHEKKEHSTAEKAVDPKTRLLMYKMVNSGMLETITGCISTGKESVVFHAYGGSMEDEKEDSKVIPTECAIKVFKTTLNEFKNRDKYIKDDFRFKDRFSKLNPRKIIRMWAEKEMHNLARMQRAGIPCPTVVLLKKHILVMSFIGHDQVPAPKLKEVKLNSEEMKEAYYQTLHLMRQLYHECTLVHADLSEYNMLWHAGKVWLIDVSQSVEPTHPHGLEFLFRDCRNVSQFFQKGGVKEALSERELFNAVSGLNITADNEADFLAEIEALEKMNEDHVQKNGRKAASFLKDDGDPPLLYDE
T4 sequence (Q9UK32 whole entry): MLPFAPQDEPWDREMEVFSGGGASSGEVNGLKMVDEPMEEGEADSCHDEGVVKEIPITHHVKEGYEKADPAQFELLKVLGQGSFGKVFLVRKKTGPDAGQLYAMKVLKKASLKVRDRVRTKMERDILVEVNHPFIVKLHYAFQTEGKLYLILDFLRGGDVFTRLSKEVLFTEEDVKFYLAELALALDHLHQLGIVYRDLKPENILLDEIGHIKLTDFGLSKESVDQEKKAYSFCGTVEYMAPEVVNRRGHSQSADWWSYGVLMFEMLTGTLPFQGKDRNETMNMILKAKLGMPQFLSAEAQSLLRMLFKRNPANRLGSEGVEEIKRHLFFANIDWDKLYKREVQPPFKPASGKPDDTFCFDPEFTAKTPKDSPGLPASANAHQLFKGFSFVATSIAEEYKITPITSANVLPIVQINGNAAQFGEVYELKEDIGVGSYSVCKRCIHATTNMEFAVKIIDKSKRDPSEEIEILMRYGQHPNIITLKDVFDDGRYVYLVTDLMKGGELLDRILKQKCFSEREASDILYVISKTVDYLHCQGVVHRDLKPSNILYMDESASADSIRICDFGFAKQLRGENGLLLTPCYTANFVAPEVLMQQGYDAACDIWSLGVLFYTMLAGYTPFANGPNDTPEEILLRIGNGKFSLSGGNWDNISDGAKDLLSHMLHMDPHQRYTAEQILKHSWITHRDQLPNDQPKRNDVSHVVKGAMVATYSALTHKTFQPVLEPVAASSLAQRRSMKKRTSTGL
AKT1, sequence (P31749 whole entry): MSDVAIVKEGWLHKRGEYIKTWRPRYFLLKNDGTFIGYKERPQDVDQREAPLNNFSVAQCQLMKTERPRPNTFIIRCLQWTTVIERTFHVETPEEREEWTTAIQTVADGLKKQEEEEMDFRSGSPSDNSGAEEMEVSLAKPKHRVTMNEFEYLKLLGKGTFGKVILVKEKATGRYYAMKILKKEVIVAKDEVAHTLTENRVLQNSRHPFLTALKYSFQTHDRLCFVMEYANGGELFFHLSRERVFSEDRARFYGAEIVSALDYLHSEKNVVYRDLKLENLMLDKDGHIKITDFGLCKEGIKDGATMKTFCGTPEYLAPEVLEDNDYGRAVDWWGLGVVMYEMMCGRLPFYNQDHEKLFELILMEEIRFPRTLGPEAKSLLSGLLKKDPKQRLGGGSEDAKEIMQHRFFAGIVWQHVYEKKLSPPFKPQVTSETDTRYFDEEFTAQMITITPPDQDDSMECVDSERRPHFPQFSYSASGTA

Consider `O=C(/C=C/c1cnccc1-c1ccc(F)cc1)Nc1ccc(CCc2nnco2)cc1` [T-418, (2E)-3-(4-(4-fluorophenyl)pyridin-3-yl)-N-(4-(2-(1,3,4-oxadiazol-2-yl)ethyl)phenyl)acrylamide], for which the remaining binding at 0.3 µM was determined as 85% on AKT1 (sheet T-418); 85% at MAP4K5 (sheet T-418); 69% in test [1] (sheet T-418); 100% on VEGFR2 (sheet T-418); 87% at CDC2L5 (sheet T-418); 90% on PHKG1 (sheet T-418). Further, the remaining binding at 0.3 µM at FLT3(ITD) (sheet T-418) turned out to be 100%; on FGFR1 (sheet T-418) it was 100%; in [2] (sheet T-418) it was 100%; in test [3] (sheet T-418) it was 78%; in test [4] (sheet T-418) it was 100%; at EPHA8 (sheet T-418), 88%. The remaining binding at 0.3 µM on SLK (sheet T-418) was 100%; at MLCK (sheet T-418), 88%; at TNK2 (sheet T-418) it was 100%; on SBK1 (sheet T-418) it was 73%; on EPHB4 (sheet T-418), 96%; at CAMK2G (sheet T-418) it was 94%. In addition, the results for the remaining binding at 0.3 µM at DRAK1 (sheet T-418), at RIOK3 (sheet T-418) and at PCTK2 (sheet T-418) were 100%, 78% and 100%, respectively.

Turning to `Cc1ncccc1Oc1sc(C(N)=O)c2c1-c1c(cnn1C)CC2` [T-474, 1-methyl-8-((2-methylpyridin-3-yl)oxy)-4,5-dihydro-1H-thieno[3,4-g]indazole-6-carboxamide], the remaining binding at 0.3 µM on AKT1 was found to be 98%; on MAP4K5 it was 70%; in test [1] it was 73%; at VEGFR2 it was 100%; at CDC2L5 it was 86%; at PHKG1 it was 100%. The remaining binding at 0.3 µM on FLT3(ITD) was 100%; at FGFR1 it was 95%; in test [2] it was 100%; in test [3], 95%; in test [4], 100%; at EPHA8, 91%. Moreover, the remaining binding at 0.3 µM at SLK worked out at 100%; at MLCK, 100%; on TNK2, 100%; on SBK1 it was 91%; on EPHB4, 100%; at CAMK2G, 97%. The remaining binding at 0.3 µM is 100% at DRAK1, 74% on RIOK3 and 100% on PCTK2.
